# Results: patent EP4011367A1, “COMPOUNDS FOR USE IN THE TREATMENT OF COVID-19” (priority 2020, dated 2022)
# Where a name gives a salt, the structure may show the parent alone. Read-outs that look alike come from different tables or passages of the source.
# Target: T1, SARS-CoV-2 3CL-Pro (Severe acute respiratory syndrome coronavirus 2, UniProt P0DTD1)
# T1 construct: SARS-CoV-2 main protease (3CL-Pro), also termed M-Pro
# Experiment: biochemical
# Conditions: for inhibition at 20 µM: read-out: 3CL-Pro Inhibition [%] Primary Screen (20 µM)
# [1] = dose response, 8 concentrations, absence of DTT, 60 min pre-incubation at 37 °C, 15 µM substrate, 60 nM enzyme, read-out: IC50
Structure (SMILES),inhibition at 20 µM [%],IC50 (read-out: IC50) [µM],IC50 [µM],IC50 [1] [µM]
"CCOC(=O)Cc1ccc(-c2ccccc2)cc1 [compound 57, [1,1'-Biphenyl]-4-acetic acid ethyl ester]",96.2,0.2,,
"O=C1C=CC(=O)C2=C1C1c3ccccc3C2c2ccccc21 [compound 61, Pentacyclo[6.6.6.0(2,7).0(9,14).0(15,20)]icosa-2(7),4,9,11,13,15,17,19-octaene-3,6-dione]",99.2,0.24,,
"O=C(O)c1ccccc1-c1c2cc(Br)c(=O)cc-2oc2[c]([Hg][OH])c(O)c(Br)cc12 [compound 62, [2,7-dibromo-9-(2-carboxyphenyl)-3-hydroxy-6-oxoxanthen-4-yl]mercury;hydrate]",,,0.24,
"CCOc1cc(C(Nc2cc(C)ccn2)c2ccc3cccnc3c2O)ccc1OC (stereo not shown) [compound 63, 7-[(3-Ethoxy-4-methoxyphenyl)[(4-methylpyridin-2-yl)amino]methyl]quinolin-8-ol]",98.9,,0.27,
"O=[N+]([O-])c1cnc(Sc2nnc(O)n2-c2ccc3c(c2)OCCO3)s1 [compound 64, 4-(2,3-Dihydro-1,4-benzodioxin-6-yl)-5-(5-nitrothiazol-2-ylsulfanyl)-4H-1,2,4-triazol-3-ol]",96.4,0.3,,
"Oc1c(I)cc(I)c(O)c1I [compound 65, 2,4,6-Triiodoresorcine]",99.7,0.33,,
"N#CSc1cc(SC#N)c(N)nc1N [compound 66, 2,6-Diaminopyridine-3,5-diyl bis(thiocyanate)]",,0.41,,
"O=[N+]([O-])C(Br)(CO)CO [compound 67, 2-bromo-2-nitropropane-1,3-diol]",99.9,0.42,,
"Oc1cc(CNC(=S)C=Cc2cc(O)c(O)c(Br)c2)cc(O)c1O [compound 68, 3-(3-Bromo-4,5-dihydroxyphenyl)-N-(3,4,5-trihydroxybenzyl)-2-propenethioamide]",79.4,,,0.48
"Oc1cc2c(cc1C(c1ccc(C(F)(F)F)cc1)N1CCOCC1)OCO2 (stereo not shown) [compound 70, 6-[morpholin-4-yl-[4-(trifluoromethyl)phenyl]methyl]-1,3-benzodioxol-5-ol]",81.4,0.54,,
"CC(C)N(CCC(=O)c1ccc2ccccc2c1)Cc1ccccc1 [compound 71, 3-[benzyl(propan-2-yl)amino]-1-naphthalen-2-ylpropan-1-one]",75.7,0.58,,
"COc1cccc2c1C(=O)c1c(O)c3c(c(O)c1C2=O)C[C@@](O)(C(CO)=NNC(=O)CCCCCN1C(=O)C=CC1=O)C[C@@H]3O[C@H]1C[C@H](N)[C@H](O)[C@H](C)O1 [compound 72, N'-[1-[4(S)-(3-Amino-2,3,6-trideoxy-alpha-L-lyxo-hexopyranosyloxy)-2(S),5,12-trihydroxy-7-methoxy-6,11-dioxo-1,2,3,4,6,11-hexahydronaphthacen-2-yl]-2-hydroxyethylidene]-6-(2,5-dioxo-2,5-dihydro-1H-pyrrol-1-yl)hexanohydrazide hydrochloride]",101,,0.58,
"CC[C@H](CO)Nc1nc(NCc2ccc(-c3ccccn3)cc2)c2ncn(C(C)C)c2n1 [compound 73, (2R)-2-[[9-propan-2-yl-6-[(4-pyridin-2-ylphenyl)methylamino]purin-2-yl]amino]butan-1-ol]",99.5,0.84,,
"C=CC1=C(C)C2=Cc3c(C=C)c(C)c4[n]3[Fe]([Cl])[n]3c(c(C)c(CCC(=O)O)c3=CC3=NC(=C4)C(C)=C3CCC(=O)O)=CC1=N2 [compound 74, - (SP-5-13)-Chloro[3,8,13,17-tetramethyl-7,12-divinyl-21H,23H-porphine-2,18-dipropanoato(4-)-kappa N21,kappaN22,kappaN23,kappaN24]dihydrogenoferrate(2-)]",,,0.88,
"CN(C)C(=S)SC(=S)N(C)C [compound 75, dimethylcarbamothioyl N,N-dimethylcarbamodithioate]",,0.94,,
"CN=c1nc(-c2ccccc2)n(-c2ccccc2)s1 [compound 76, N-(2,3-Diphenyl-2,5-dihydro-1,2,4-thiadiazol-5-ylidene)-N-methylamine]",99.8,,,0.98
"COc1cc(C(=S)N2CCOCC2)ccc1O [compound 79, (4-hydroxy-3-methoxyphenyl)-orpholin-4-ylmethanethione]",100,1.32,,
"CNC(=O)ON(C(C)=O)C(=O)NC [compound 80, N-[(Methylamino)carbonyl]-N-[[(methylamino)carbonyl]oxy]ace tamide]",96.4,1.33,,
"O=C(O)c1cc(O)c2c(c1)[C@H]([C@H]1c3cc(C(=O)O)cc(O)c3C(=O)c3c(O[C@@H]4O[C@H](CO)[C@@H](O)[C@H](O)[C@H]4O)cccc31)c1cccc(O[C@@H]3O[C@H](CO)[C@@H](O)[C@H](O)[C@H]3O)c1C2=O [compound 81, (9R)-9-[(9R)-2-carboxy-4-hydroxy-10-oxo-5-[(2S,3R,4S,5S,6R)-3,4,5-trihydroxy-6-(hydroxymethyl)oxan-2-yl]oxy-9H-anthracen-9-yl]-4-hydroxy-10-oxo-5-[(2S,3R,4S,5S,6R)-3,4,5-trihydroxy-6-(hydroxymethyl)oxan-2-yl]oxy-9H-anthracene-2-carboxylic acid]",103,,,
"O=C(O)C(S)C(S)C(=O)O (stereo not shown) [compound 82, 2,3-bis(sulfanyl)butanedioic acid]",98.9,,1.72,
"Cc1ccccc1N(C)C(=O)c1ccc([S+]([O-])c2nccs2)c([N+](=O)[O-])c1 (stereo not shown) [compound 84, N-methyl-N-(2-methylphenyl)-3-nitro-4-(1,3-thiazol-2-ylsulfinyl)benzamide]",96.7,1.87,,
"CN1CC[C@@]2(C)c3cc(O)ccc3N(C)[C@@H]12 [compound 85, (3aS,8bR)-3,4,8b-trimethyl-2,3a-dihydro-1H-pyrrolo[2,3-b] indol-7-ol]",91.5,1.99,,
"O=C(O)CCCCCCCCCCCCCCc1ccc(I)cc1 [compound 88, 15-(4-iodophenyl)pentadecanoic acid]",95,2.25,,
"COc1cccc(C(=O)CCN[C@@H](C)[C@H](O)c2ccccc2)c1 [compound 89, 3-[2(R)-Hydroxy-1(S)-methyl-2-phenylethylamino]-1-(3-methoxyphenyl)propan-1-one hydrochloride]",90.8,2.35,,
"C[N+]1(C)CCC(OC(=O)C(c2ccccc2)c2ccccc2)CC1 [compound 90, (1,1-dimethylpiperidin-1-ium-4-yl) 2,2-diphenylacetate;iodide]",97.8,,2.36,
"C=C1C(=O)[C@@]23C(CC[C@@H]1[C@H]2O)[C@@]12CO[C@]3(O)[C@@H](O)[C@@H]1C(C)(C)CC[C@@H]2O (stereo partly drawn) [compound 91, (1S,5S,8R,9S,10S,11R,15S,18R)-9,10,15,18-tetrahydroxy-12,12-dimethyl-6-methylidene-17-oxapentacyclo[7.6.2.15,8.01,11.0 2,8]octadecan-7-one]",98.2,,,
